What is called IC50 is the point on the concentration scale where inhibition reaches its midpoint. Broadly, the MIC is the lowest concentration that inhibits growth of the organism. A low value points to greater potency.

From patent publication US9073941B2, “Compounds and methods for treating tuberculosis infection” (Academia Sinica, priority 2010, dated 2015) come the findings set out here.

The target in assay [1] is lipoamide dehydrogenase (Lpd) (Mycobacterium tuberculosis (strain ATCC 25618 / H37Rv), UniProt P9WHH9). Briefly: Lipoamide Dehydrogenase (Lpd) Inhibition Assay. The format is biochemical. The following applies: concentration required for 50% inhibition of LPD activity; DTNB detection, OD405 nm.
For assay [2], the system named is Mycobacterium tuberculosis strains H37Rv. The experiment in a line: In Vitro Antitubercular H37Rv MIC Assay (resazurin). The format is cell-based. The following applies: 168 h; growth of Mycobacterium tuberculosis H37Rv, 7H9 medium, 7 days, tested 8-0.25 μg/mL. On the technique in general: Alamar Blue is a resazurin reagent that responds to reducing activity.
The next assay has as its target Mtb PDH (Lpd+DlaT+AceE) (Mycobacterium tuberculosis (strain ATCC 25618 / H37Rv), UniProt P9WHH9). The experiment in a line: PDH Inhibition Activity. The following applies: concentration required for 50% inhibition of PDH activity; fluorescence ex 360 nm / em 460 nm; read-out: PDH IC50. Format: biochemical.

`CCCCn1c(NC(=O)c2ccc(Br)o2)c(C#N)c2nc3ccccc3nc21` [Compound 1001]: the IC50 in assay [1] amounted to 1080 ± 240 nM; at Mtb PDH (Lpd+DlaT+AceE), 954 nM. Moreover, in assay [2], the MIC was greater than 8 µg/mL.

`C=CCn1c(NS(=O)(=O)c2ccccc2)c(C#N)c2nc3ccccc3nc21` [Compound 1002]: the IC50 in assay [1] was determined as 980 ± 150 nM; on Mtb PDH (Lpd+DlaT+AceE), 3320 nM. The minimum inhibitory concentration (MIC) in assay [2] is greater than 8 µg/mL.
